US20260262643A1, “HERBICIDAL BENZOXAZINES” (FMC CORPORATION, priority 2022, published 2026)

Key:
blackgrass [1] = assay: Test A preemergence; assay type: in vivo, Alopecurus myosuroides
How it was run: (§1)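 Visual injury ratings on a 0–100 scale (100 = complete control) versus untreated controls, taken 10 days after treatment in greenhouse. Preemergence: directed soil spray onto seeded loam/sand. Postemergence: foliar application at one- to two-leaf stage, plants 2–10 cm. Formulation: non-phytotoxic solvent plus surfactant.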

corn [2] = assay: Test A preemergence; assay type: in vivo, Zea mays
How it was run: as §1

foxtail, giant [3] = assay: Test A preemergence; assay type: in vivo, Setaria faberi
How it was run: as §1

goosegrass [4] = assay: Test A preemergence; assay type: in vivo, Eleusine indica
How it was run: as §1

kochia [5] = assay: Test A preemergence; assay type: in vivo, Bassia scoparia
How it was run: as §1

oat, wild [6] = assay: Test A preemergence; assay type: in vivo, Avena fatua
How it was run: as §1

pigweed, palmer [7] = assay: Test A preemergence; assay type: in vivo, Amaranthus palmeri
How it was run: as §1

ragweed [8] = assay: Test A preemergence; assay type: in vivo, Ambrosia artemisiifolia
How it was run: as §1

ryegrass, Italian [9] = assay: Test A preemergence; assay type: in vivo, Lolium multiflorum
How it was run: as §1

soybean [10] = assay: Test A preemergence; assay type: in vivo, Glycine max
How it was run: as §1

wheat [11] = assay: Test A preemergence; assay type: in vivo, Triticum aestivum
How it was run: as §1

blackgrass [12] = assay: Test A postemergence; assay type: in vivo, Alopecurus myosuroides
How it was run: as §1

corn [13] = assay: Test A postemergence; assay type: in vivo, Zea mays
How it was run: as §1

foxtail, giant [14] = assay: Test A postemergence; assay type: in vivo, Setaria faberi
How it was run: as §1

goosegrass [15] = assay: Test A postemergence; assay type: in vivo, Eleusine indica
How it was run: as §1

kochia [16] = assay: Test A postemergence; assay type: in vivo, Bassia scoparia
How it was run: as §1

oat, wild [17] = assay: Test A postemergence; assay type: in vivo, Avena fatua
How it was run: as §1

pigweed, palmer [18] = assay: Test A postemergence; assay type: in vivo, Amaranthus palmeri
How it was run: as §1

ragweed [19] = assay: Test A postemergence; assay type: in vivo, Ambrosia artemisiifolia
How it was run: as §1

ryegrass, Italian [20] = assay: Test A postemergence; assay type: in vivo, Lolium multiflorum
How it was run: as §1

soybean [21] = assay: Test A postemergence; assay type: in vivo, Glycine max
How it was run: as §1

wheat [22] = assay: Test A postemergence; assay type: in vivo, Triticum aestivum
How it was run: as §1

galium = assay: Test A postemergence; assay type: in vivo, Galium aparine
How it was run: as §1

barnyardgrass = assay: Test B flooded paddy test; assay type: in vivo, Echinochloa crus-galli; conditions: 250 g ai/ha, Flood, 13 days, 0 to 100 scale (0 no effect, 100 complete control)
How it was run: (§2)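 2-leaf stage; pots flooded 3 cm over soil; compound dosed into paddy water; depth kept constant. Greenhouse, 13 d. Visual rating vs controls, 0 (no effect)–100 (complete control). Dash = no result.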

ducksalad = assay: Test B flooded paddy test; assay type: in vivo, Heteranthera limosa; conditions: 250 g ai/ha, Flood, 13 days, 0 to 100 scale (0 no effect, 100 complete control)
How it was run: as §2

rice = assay: Test B flooded paddy test; assay type: in vivo, Oryza sativa; conditions: 250 g ai/ha, Flood, 13 days, 0 to 100 scale (0 no effect, 100 complete control)
How it was run: as §2

sedge, umbrella = assay: Test B flooded paddy test; assay type: in vivo, Cyperus difformis; conditions: 250 g ai/ha, Flood, 13 days, 0 to 100 scale (0 no effect, 100 complete control)
How it was run: as §2

[23] = 125 g ai/ha, visual injury after 10 days, 0 to 100 scale, 0 is no effect, 100 is complete control
[24] = 500 g ai/ha, 0 to 100 scale (0 no effect, 100 complete control), 10 days
[25] = 125 g ai/ha, postemergence, 10 days, visual injury, 0 to 100 scale (0 no effect, 100 complete control)
[26] = 500 g ai/ha, Postemergence, 0 to 100 scale

CC1CN(C(=O)c2cccc(-n3cncn3)c2)c2cc(F)cc(F)c2O1 (stereo not shown) [Compound 45]
Plant response rating, Blackgrass (blackgrass [1]; [23]): 50 | Plant response rating, Blackgrass (blackgrass [1]; [24]): 80 | Plant response rating, Corn (corn [2]; [23]): 0 | Plant response rating, Corn (corn [2]; [24]): 20 | Plant response rating, Foxtail, Giant (foxtail, giant [3]; [23]): 70 | Plant response rating, Foxtail, Giant (foxtail, giant [3]; [24]): 100 | Plant response rating, Goosegrass (goosegrass [4]; [23]): 70 | Plant response rating, Goosegrass (goosegrass [4]; [24]): 100 | Plant response rating, Kochia (kochia [5]; [23]): 0 | Plant response rating, Kochia (kochia [5]; [24]): 20 | Plant response rating, Oat, Wild (oat, wild [6]; [23]): 0 | Plant response rating, Oat, Wild (oat, wild [6]; [24]): 80 | Plant response rating, Pigweed, Palmer (pigweed, palmer [7]; [23]): 30 | Plant response rating, Pigweed, Palmer (pigweed, palmer [7]; [24]): 70 | Plant response rating, Ragweed (ragweed [8]; [23]): 0 | Plant response rating, Ragweed (ragweed [8]; [24]): 0 | Plant response rating, Ryegrass, Italian (ryegrass, Italian [9]; [23]): 70 | Plant response rating, Ryegrass, Italian (ryegrass, Italian [9]; [24]): 90 | Plant response rating, Soybean (soybean [10]; [23]): 20 | Plant response rating, Soybean (soybean [10]; [24]): 90 | Plant response rating, Wheat (wheat [11]; [23]): 0 | Plant response rating, Wheat (wheat [11]; [24]): 60 | Plant response rating, Blackgrass (blackgrass [12]; [25]): 30 | Plant response rating, Blackgrass (blackgrass [12]; [26]): 60 | Plant response rating, Corn (corn [13]; [25]): 10 | Plant response rating, Corn (corn [13]; [26]): 20 | Plant response rating, Foxtail, Giant (foxtail, giant [14]; [25]): 20 | Plant response rating, Foxtail, Giant (foxtail, giant [14]; [26]): 90 | Plant response rating, Goosegrass (goosegrass [15]; [25]): 0 | Plant response rating, Goosegrass (goosegrass [15]; [26]): 60 | Plant response rating, Kochia (kochia [16]; [25]): 10 | Plant response rating, Kochia (kochia [16]; [26]): 80 | Plant response rating, Oat, Wild (oat, wild [17]; [25]): 0 | Plant response rating, Oat, Wild (oat, wild [17]; [26]): 20 | Plant response rating, Pigweed, Palmer (pigweed, palmer [18]; [25]): 30 | Plant response rating, Pigweed, Palmer (pigweed, palmer [18]; [26]): 10 | Plant response rating, Ragweed (ragweed [19]; [25]): 0 | Plant response rating, Ragweed (ragweed [19]; [26]): 30 | Plant response rating, Ryegrass, Italian (ryegrass, Italian [20]; [25]): 50 | Plant response rating, Ryegrass, Italian (ryegrass, Italian [20]; [26]): 80 | Plant response rating, Soybean (soybean [21]; [25]): 100 | Plant response rating, Soybean (soybean [21]; [26]): 100 | Plant response rating, Wheat (wheat [22]; [25]): 10 | Plant response rating, Wheat (wheat [22]; [26]): 40 | Plant response rating, Galium (galium; [25]): 80 | Plant response rating, Galium (galium; [26]): 90 | Plant response rating, Barnyardgrass (barnyardgrass): 0 | Plant response rating, Ducksalad (ducksalad): 0 | Plant response rating, Rice (rice): 0 | Plant response rating, Sedge, Umbrella (sedge, umbrella): 0

C[C@H]1CN(C(=O)c2cccc(-n3cncn3)c2)c2cccc(C(F)(F)F)c2O1 [Compound 47]
Plant response rating, Blackgrass (blackgrass [1]; [23]): 70 | Plant response rating, Blackgrass (blackgrass [1]; [24]): 90 | Plant response rating, Corn (corn [2]; [23]): 0 | Plant response rating, Corn (corn [2]; [24]): 0 | Plant response rating, Foxtail, Giant (foxtail, giant [3]; [23]): 60 | Plant response rating, Foxtail, Giant (foxtail, giant [3]; [24]): 90 | Plant response rating, Goosegrass (goosegrass [4]; [23]): 80 | Plant response rating, Goosegrass (goosegrass [4]; [24]): 100 | Plant response rating, Kochia (kochia [5]; [23]): 0 | Plant response rating, Kochia (kochia [5]; [24]): 50 | Plant response rating, Oat, Wild (oat, wild [6]; [23]): 10 | Plant response rating, Oat, Wild (oat, wild [6]; [24]): 30 | Plant response rating, Pigweed, Palmer (pigweed, palmer [7]; [23]): 60 | Plant response rating, Pigweed, Palmer (pigweed, palmer [7]; [24]): 90 | Plant response rating, Ragweed (ragweed [8]; [23]): 0 | Plant response rating, Ragweed (ragweed [8]; [24]): 0 | Plant response rating, Ryegrass, Italian (ryegrass, Italian [9]; [23]): 80 | Plant response rating, Ryegrass, Italian (ryegrass, Italian [9]; [24]): 90 | Plant response rating, Soybean (soybean [10]; [23]): 0 | Plant response rating, Soybean (soybean [10]; [24]): 40 | Plant response rating, Wheat (wheat [11]; [23]): 0 | Plant response rating, Wheat (wheat [11]; [24]): 20 | Plant response rating, Blackgrass (blackgrass [12]; [25]): 10 | Plant response rating, Blackgrass (blackgrass [12]; [26]): 60 | Plant response rating, Corn (corn [13]; [25]): 30 | Plant response rating, Corn (corn [13]; [26]): 60 | Plant response rating, Foxtail, Giant (foxtail, giant [14]; [25]): 30 | Plant response rating, Foxtail, Giant (foxtail, giant [14]; [26]): 90 | Plant response rating, Goosegrass (goosegrass [15]; [25]): 0 | Plant response rating, Goosegrass (goosegrass [15]; [26]): 20 | Plant response rating, Kochia (kochia [16]; [25]): 50 | Plant response rating, Kochia (kochia [16]; [26]): 90 | Plant response rating, Oat, Wild (oat, wild [17]; [25]): 10 | Plant response rating, Oat, Wild (oat, wild [17]; [26]): 30 | Plant response rating, Pigweed, Palmer (pigweed, palmer [18]; [25]): 70 | Plant response rating, Pigweed, Palmer (pigweed, palmer [18]; [26]): 90 | Plant response rating, Ragweed (ragweed [19]; [25]): 0 | Plant response rating, Ragweed (ragweed [19]; [26]): 0 | Plant response rating, Ryegrass, Italian (ryegrass, Italian [20]; [25]): 30 | Plant response rating, Ryegrass, Italian (ryegrass, Italian [20]; [26]): 90 | Plant response rating, Soybean (soybean [21]; [25]): 80 | Plant response rating, Soybean (soybean [21]; [26]): 100 | Plant response rating, Wheat (wheat [22]; [25]): 20 | Plant response rating, Wheat (wheat [22]; [26]): 40 | Plant response rating, Galium (galium; [25]): 60 | Plant response rating, Galium (galium; [26]): 90 | Plant response rating, Barnyardgrass (barnyardgrass): 0 | Plant response rating, Ducksalad (ducksalad): 0 | Plant response rating, Rice (rice): 0 | Plant response rating, Sedge, Umbrella (sedge, umbrella): 0
